Laboratory results: the supplement of paper PMC4862054

What was measured:
Assay in all cases: normalised viability (% of control), CellTiter-Blue; higher = more viable cells (about 100 = DMSO control)
BT-549 = details: 100 nM; incubation time: 72 h
Procedure: (§1)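 DSRT, CellTiter-Blue viability, 72 h incubation. Signal is normalised to DMSO and benzethonium chloride controls. Value is the normalised response at dose 3.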

CAL-85-1 = details: 10 nM; incubation time: 72 h
Procedure: as §1

Hs578T [1] = details: 100 nM; incubation time: 72 h
Procedure: as §1

MFM-223 [2] = details: 100 nM; incubation time: 72 h
Procedure: as §1

DU-4475 [3] = details: 10 nM; incubation time: 72 h
Procedure: as §1

HCC1143 = details: 100 nM; incubation time: 72 h
Procedure: as §1

MDA-MB-453 [4] = details: 10 nM; incubation time: 72 h
Procedure: as §1

CAL-51 [5] = details: 10 nM; incubation time: 72 h
Procedure: as §1

HCC1599 = details: 100 nM; incubation time: 72 h
Procedure: as §1

MDA-MB-231 = details: 100 nM; incubation time: 72 h
Procedure: as §1

HDQ-P1 [6] = details: 10 nM; incubation time: 72 h
Procedure: as §1

MDA-MB-468 [7] = details: 100 nM; incubation time: 72 h
Procedure: as §1

CAL-120 [8] = details: 100 nM; incubation time: 72 h
Procedure: as §1

BT-474 [9] = details: 100 nM; incubation time: 72 h
Procedure: as §1

MDA-MB-436 = details: 100 nM; incubation time: 72 h
Procedure: as §1

CAL-148 [10] = details: 10 nM; incubation time: 72 h
Procedure: as §1

SK-BR-3 [11] = details: 100 nM; incubation time: 72 h
Procedure: as §1

HCC1937 [12] = details: 100 nM; incubation time: 72 h
Procedure: as §1

Hs578T [13] = details: incubation time: 72 h
In short: (§2)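 Normalised viability is given for a single listed concentration of the series. In 384-well plates, breast cancer cell lines were incubated 72 h with compound, then read with CellTiter-Blue (2 h, 37 °C) at 560/590 nm. Per-plate scaling set vehicle to 100 and a positive kill control to 0, with Z'-factor quality control.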

MFM-223 [14] = details: incubation time: 72 h
In short: as §2

DU-4475 [15] = details: incubation time: 72 h
In short: as §2

MDA-MB-453 [16] = details: incubation time: 72 h
In short: as §2

CAL-51 [17] = details: incubation time: 72 h
In short: as §2

HDQ-P1 [18] = details: incubation time: 72 h
In short: as §2

MDA-MB-468 [19] = details: incubation time: 72 h
In short: as §2

CAL-120 [20] = details: incubation time: 72 h
In short: as §2

BT-474 [21] = details: incubation time: 72 h
In short: as §2

CAL-148 [22] = details: incubation time: 72 h
In short: as §2

SK-BR-3 [23] = details: incubation time: 72 h
In short: as §2

HCC1937 [24] = details: incubation time: 72 h
In short: as §2

Cn1c(CCCC(=O)O)nc2cc(N(CCCl)CCCl)ccc21 [Bendamustine]
Details | normalised viability [%]
BT-474 [9] | 108
BT-549 | 109
CAL-51 [5] | 106
CAL-85-1 | 102
CAL-120 [8] | 88.2
CAL-148 [10] | 108
DU-4475 [3] | 120
HCC1143 | 105
HCC1599 | 105
HCC1937 [12] | 97.4
HDQ-P1 [6] | 112
Hs578T [1] | 83.7
MDA-MB-231 | 93.2
MDA-MB-436 | 83.4
MDA-MB-453 [4] | 112
MDA-MB-468 [7] | 96.3
MFM-223 [2] | 102
SK-BR-3 [11] | 67.7

normalised viability [%]
Details | 3 nM | 10 nM | 30 nM | 100 nM | 1000 nM | 10000 nM
BT-474 [21] | – | 127 | – | – | 120 | 105
CAL-51 [17] | 111 | – | 105 | 111 | – | –
CAL-120 [20] | – | 89.5 | – | – | 86.7 | 93.4
CAL-148 [22] | 99.8 | – | 112 | 106 | – | –
DU-4475 [15] | 90 | – | 102 | 101 | – | –
HCC1937 [24] | – | 55.3 | – | – | 85.7 | 93.7
HDQ-P1 [18] | 105 | – | 119 | 109 | – | –
Hs578T [13] | – | 110 | – | – | 127 | 97.7
MDA-MB-453 [16] | 125 | – | 108 | 106 | – | –
MDA-MB-468 [19] | – | 107 | – | – | 95 | 82.3
MFM-223 [14] | – | 96.2 | – | – | 87.4 | 93.5
SK-BR-3 [23] | – | 108 | – | – | 109 | 85

C#Cc1cccc(Nc2ncnc3cc(OCCOC)c(OCCOC)cc23)c1 [Erlotinib]
Details | normalised viability [%]
BT-474 [9] | 103
BT-549 | 110
CAL-51 [5] | 102
CAL-85-1 | 95.4
CAL-120 [8] | 102
CAL-148 [10] | 98.8
DU-4475 [3] | 94.9
HCC1143 | 92.9
HCC1599 | 78
HCC1937 [12] | 106
HDQ-P1 [6] | 109
Hs578T [1] | 85.4
MDA-MB-231 | 96.6
MDA-MB-436 | 109
MDA-MB-453 [4] | 114
MDA-MB-468 [7] | 95
MFM-223 [2] | 88.5
SK-BR-3 [11] | 88.7

normalised viability [%]
Details | 3 nM | 10 nM | 30 nM | 100 nM | 1000 nM | 10000 nM
BT-474 [21] | – | 98.5 | – | – | 90.1 | 51
CAL-51 [17] | 102 | – | 96.1 | 98.8 | – | –
CAL-120 [20] | – | 91.4 | – | – | 95.1 | 50.1
CAL-148 [22] | 89.7 | – | 102 | 98.2 | – | –
DU-4475 [15] | 107 | – | 90.7 | 86.7 | – | –
HCC1937 [24] | – | 95 | – | – | 80.2 | 63.6
HDQ-P1 [18] | 108 | – | 94 | 85 | – | –
Hs578T [13] | – | 123 | – | – | 120 | 69
MDA-MB-453 [16] | 109 | – | 99.2 | 98 | – | –
MDA-MB-468 [19] | – | 108 | – | – | 75.2 | 43.6
MFM-223 [14] | – | 97.3 | – | – | 91.5 | 54.1
SK-BR-3 [23] | – | 91 | – | – | 91.2 | 27.6
